According to patent US20030096394A1, “Laccase activity enhancers” (priority 2001, published 2003):

How the values were obtained:
[1] = Appearance of potential mediator in water; assay type: physicochemical
laccase (NS51003) = experiment: Chicago Blue (Direct Blue 1) dye bleaching assay for laccase mediators; assay type: biochemical, Aspergillus sp.; details: potential mediator 0.1 micromole/ml, decrease in absorbance at 610 nm
Method: The Chicago Blue Dye, also known as Direct Blue 1 or DB 1, was used to identify these compounds. The Chicago Blue Dye is fully described by Schneider et al. in U.S. Pat. No. 5,885,304, which is hereby incorporated by reference, and has the following formula. [drawing 10]
Each of the test compounds (i.e., potential mediators) was dissolved in water, or in ethanol if the potential mediator was not water soluble, and then mixed with a phosphate buffer and a Chicago Blue solution. […] The change in the absorbance at A610 nm was measured immediately using a UV-VIS spectrophotometer (UV-1201, Shimadzu Scientific Instruments) after the enzyme was added. The decrease in absorbance was recorded at 30-second intervals for 5 minutes and was used to estimate the efficiency of the mediator.
Experiments were conducted at pH levels of 5.5 and 7.0. The last column gives the decrease in absorbance at 610 nm. The larger the decrease in absorbance at 610 nm, the better is the ability to discolor the dye.

[2] = tested on: laccase (NS51003, Novozymes A/S) and xylanase (Pulpzyme HC, Novozymes A/S); experiment: Bleaching of Chicago Blue at pH 7.0 with laccase and xylanase combination; assay type: biochemical; details: mediator 20 μM
Method: In the following example, the enzyme enhancing agent N-benzylidenebenzylamine was used as a mediator for a laccase to enhance the bleaching of Chicago Blue at pH 7.0 in the presence of a laccase and a xylanase.
The activity of the xylanase (Pulpzyme HC, Novozymes A/S) is 1000 units per ml enzyme solution. One xylanase unit is defined as the amount of enzyme which, under standard conditions (pH 9.0, 50° C., 30 minutes of incubation), release one micromole of the dye from a dyed RBB xylan.
N-Benzylidenebenzylamine was dissolved in ethanol and then mixed with a phosphate buffer and a Chicago Blue solution. A solution of laccase (NS51003, Novozymes A/S) and xylanase (Pulpzyme HC, Novozymes A/S) was added to make 1 ml of the final solution, containing 20 uM of the mediator, 20 mM buffer at pH 7.0 and Chicago Blue solution, with absorbance at A610 nm between 0.6 to 0.8. After the enzyme was added, the change in the absorbance was measured immediately using a UV spectrophotometer (UV-1201, Shimadzu Scientific Instruments). The decrease in absorbance was recorded after 3 minutes and was used to estimate the results of bleaching.

SMILES	Appearance in water ([1]; Table 1 (pH 5.5 series))	ΔmA610 (3 min) (laccase (NS51003); pH 5.5)	further results
O=C(O)C=Cc1cccc(Cl)c1 [3-Chlorocinnamic acid]	cloudy	8	
COc1ccc(C=CC(=O)O)cc1 [4-Methoxycinnamic acid]	cloudy	6	
COc1cc(C=CC(=O)O)cc(OC)c1OC [3,4,5-Trimethoxycinnamic acid]	cloudy	5	
Nc1ccc(C=CC(=O)O)cc1 [4-Aminocinnamic acid]	clear	43	
C(=NCc1ccccc1)c1ccccc1 [N-benzylidene benzylamine]	clear	28	mA610 (3 min) ([2]; laccase 0% v/v, xylanase 0.5% v/v): 112; mA610 (3 min) ([2]; laccase 0.5% v/v, xylanase 0% v/v): 11; mA610 (3 min) ([2]; laccase 0.5% v/v, xylanase 0.5% v/v): 163; Appearance in water ([1]; Table 2 (pH 7.0 series)): clear; ΔmA610 (3 min) (laccase (NS51003); pH 7.0): 2
O=C(O)C=Cc1ccc([N+](=O)[O-])cc1 [4-Nitrocinnamic acid]	cloudy	0	
O=C(O)C=Cc1cccc(O)c1 [3-Hydroxycinnamic acid]	clear	7	
CN(C)c1ccc(C=CC(=O)O)cc1 [4-(Dimethylamino)cinnamic acid]	clear, yellow	519	
O=C(O)C=Cc1ccc(Cl)cc1 [4-Chlorocinnamic acid]	cloudy	13	
COc1ccc(CO)cc1OC [Veratryl alcohol]	clear	3	
COc1cc(C=CC(=O)O)ccc1O [4-Hydroxy-3-methoxycinnamic acid]		441	
O=C(O)C=Cc1ccc(O)cc1 [4-Hydroxycinnamic acid]	clear	42	
COc1cc(C=CC(=O)O)cc(OC)c1O [3,5-Dimethoxy-4-hydroxycinnamic acid]	clear	491	
O=C(O)C=Cc1ccccc1Cl [2-Chlorocinnamic acid]	cloudy	9	
Nc1nc(N)nc(N)n1 [Melamine]	cloudy	128	
O=C(O)C=Cc1ccccc1 [Cinnamic acid]	clear	3	
CCOC(=O)c1ccccc1O [Ethyl Salicylate]	cloudy	2	
Nc1ccccn1 [2-Aminopyridine]	light brown	3	Appearance in water ([1]; Table 2 (pH 7.0 series)): light brown; ΔmA610 (3 min) (laccase (NS51003); pH 7.0): 2
O=C(O)C=Cc1ccccc1O [2-Hydroxycinnamic acid]	clear	5	
COc1ccc(C=CC(=O)O)cc1O [3-Hydroxy-4-methoxycinnamic acid]	clear	94	
COc1cccc(C=CC(=O)O)c1 [3-Methoxycinnamic acid]	clear	4	
O=C1Nc2ccccc2C1=O [Isatin]	clear	6	
COc1ccc(C=CC(=O)O)cc1OC [3,4-Dimethoxycinnamic acid]	clear	0	
O=C(O)c1ccccc1O [Salicylic acid]	clear	11	
